Assay results published in BindingDB's records for doi:10.1074/jbc.M113.529529 (The University of Tokyo, 2014).

Tests used:
Assay in all cases: β-Gal Inhibitory Assay
Conditions in all cases: pH 4.5; 37 °C
[1] = target: T1, Beta-galactosidase [24-677,R201C] (Human, UniProt P16278, R201C)
T1 construct: 24-677
Method: (§1) β-Gal activity was measured by using 4-methylumbelliferyll-β-D-galactopyranoside in buffer B (0.15 M sodium citrate, pH 4.5, and 0.2 M NaCl) as a substrate, and incubating at 37 °C for 6 min.

[2] = target: T2, Beta-galactosidase [24-677] (Human, UniProt P16278)
T2 construct: 24-677
T2 sequence (P16278 whole entry): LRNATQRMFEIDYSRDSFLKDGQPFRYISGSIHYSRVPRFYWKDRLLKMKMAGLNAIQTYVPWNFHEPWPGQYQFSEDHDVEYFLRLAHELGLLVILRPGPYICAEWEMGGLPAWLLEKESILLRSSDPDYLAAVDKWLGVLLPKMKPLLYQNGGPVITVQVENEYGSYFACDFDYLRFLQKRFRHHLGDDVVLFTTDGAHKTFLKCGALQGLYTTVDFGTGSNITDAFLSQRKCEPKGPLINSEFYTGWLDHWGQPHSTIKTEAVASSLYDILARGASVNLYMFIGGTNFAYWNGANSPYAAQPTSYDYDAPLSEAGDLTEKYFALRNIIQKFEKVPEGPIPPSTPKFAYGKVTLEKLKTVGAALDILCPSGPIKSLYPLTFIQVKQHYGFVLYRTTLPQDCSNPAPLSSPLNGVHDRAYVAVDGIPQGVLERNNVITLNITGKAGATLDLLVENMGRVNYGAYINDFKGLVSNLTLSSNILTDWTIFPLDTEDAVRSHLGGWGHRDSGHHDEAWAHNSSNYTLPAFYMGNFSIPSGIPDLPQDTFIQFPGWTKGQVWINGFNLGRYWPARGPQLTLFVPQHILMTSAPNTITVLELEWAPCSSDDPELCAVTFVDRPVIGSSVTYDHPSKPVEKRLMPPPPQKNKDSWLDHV
Method: as §1

[3] = target: T3, Beta-galactosidase [24-677,I51T] (Human, UniProt P16278, I51T)
T3 construct: 24-677
Method: as §1

Row | Ki [1] [µM] | Ki [2] [µM] | Ki [3] [µM] | Structure (SMILES)
1 | 53.3 | 68.3 | 68.8 | CCCC/N=C1\SC[C@@H]2[C@H](O)[C@H](O)[C@@H](O)CN12 [5N,6S-(N'-butyliminomethylidene)-6-thio-1-deoxygalactonojirimycin]
2 | 320 | 253 | 320 | CCCC/N=C1/SCC2[C@H](O)[C@H](O)C(O)[C@@H](O)N12 (stereo partly drawn) [5N,6S-(N'-butyliminomethylidene)-6-thiogalactonojirimycin]
3 | 388 | 373 | 329 | CCCCNC(=S)N1CC(O)[C@@H](O)[C@@H](O)C1CO (stereo not given in full) [N-(N'-butylthiocarbamoyl)-1-deoxygalactonojirimycin]
4 | 5610 | 4140 | 4910 | OC[C@H]1OC(O)[C@H](O)[C@@H](O)[C@H]1O (stereo not given in full) [Galactose]

Row | Structure (SMILES) | Ki [1] [µM] | Ki [2] [µM] | Ki [3] [µM]
5 | CCCCCCCCN[C@H]1C=C(CO)[C@@H](O)[C@H](O)[C@H]1O [NOEV] | 0.94 | 1.1 | 1.2
